One molecule from publication PMC4694659, “Biochemical Characterization of Medaka (Oryzias latipes) Transglutaminases, OlTGK1 and OlTGK2, as Orthologues of Human Keratinocyte-Type Transglutaminase” (PLoS ONE, 2015) can be followed below.

One experiment has as its target T1, OlTGK1 (Oryzias latipes, UniProt A0A0S3Q197).
T1 construct: full-length ORF (2067 bp, 688 residues), N-terminal hexahistidine tag, pET24d, E. coli BL21(DE3)LysS; cDNA cloned from embryonic medaka cDNA library (fish kept: Cab strain)
T1 sequence (A0A0S3Q197 1-688): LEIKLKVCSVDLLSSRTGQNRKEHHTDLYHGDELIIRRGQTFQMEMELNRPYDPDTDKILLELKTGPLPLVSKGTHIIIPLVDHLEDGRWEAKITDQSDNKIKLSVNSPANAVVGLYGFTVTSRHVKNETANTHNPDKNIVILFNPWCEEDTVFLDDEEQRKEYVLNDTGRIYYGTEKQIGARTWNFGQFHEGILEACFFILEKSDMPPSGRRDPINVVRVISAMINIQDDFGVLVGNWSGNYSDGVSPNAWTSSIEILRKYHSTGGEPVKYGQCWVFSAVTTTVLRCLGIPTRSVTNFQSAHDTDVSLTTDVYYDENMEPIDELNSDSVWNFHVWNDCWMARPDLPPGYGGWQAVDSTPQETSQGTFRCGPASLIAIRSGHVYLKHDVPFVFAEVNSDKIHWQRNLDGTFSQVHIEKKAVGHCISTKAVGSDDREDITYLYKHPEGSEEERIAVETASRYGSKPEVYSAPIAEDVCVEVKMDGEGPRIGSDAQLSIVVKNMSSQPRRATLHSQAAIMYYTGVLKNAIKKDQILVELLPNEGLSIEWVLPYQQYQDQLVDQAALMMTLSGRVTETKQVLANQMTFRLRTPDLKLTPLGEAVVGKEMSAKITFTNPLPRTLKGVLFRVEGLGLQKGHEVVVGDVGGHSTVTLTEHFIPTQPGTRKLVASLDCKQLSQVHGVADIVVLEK
Description: microplate transamidation: incorporation of bio-Cd into coated beta-casein, streptavidin-peroxidase read-out. It is filed as biochemical. To be noted: amine acceptor substrate; co-substrate beta-casein (coated); CaCl2; Tris-Cl pH 8.0; 25 °C; 20 min; labelled compound.

The next experiment deals with T2, OlTGK2 (Oryzias latipes, UniProt A0A0S3Q1B1).
T2 construct: full-length ORF (2340 bp, 778 residues as printed), N-terminal hexahistidine tag, pET24d, E. coli BL21(DE3)LysS; NBRP cDNA clone olsp48d24 (fish kept: Cab strain)
T2 sequence (A0A0S3Q1B1 1-779): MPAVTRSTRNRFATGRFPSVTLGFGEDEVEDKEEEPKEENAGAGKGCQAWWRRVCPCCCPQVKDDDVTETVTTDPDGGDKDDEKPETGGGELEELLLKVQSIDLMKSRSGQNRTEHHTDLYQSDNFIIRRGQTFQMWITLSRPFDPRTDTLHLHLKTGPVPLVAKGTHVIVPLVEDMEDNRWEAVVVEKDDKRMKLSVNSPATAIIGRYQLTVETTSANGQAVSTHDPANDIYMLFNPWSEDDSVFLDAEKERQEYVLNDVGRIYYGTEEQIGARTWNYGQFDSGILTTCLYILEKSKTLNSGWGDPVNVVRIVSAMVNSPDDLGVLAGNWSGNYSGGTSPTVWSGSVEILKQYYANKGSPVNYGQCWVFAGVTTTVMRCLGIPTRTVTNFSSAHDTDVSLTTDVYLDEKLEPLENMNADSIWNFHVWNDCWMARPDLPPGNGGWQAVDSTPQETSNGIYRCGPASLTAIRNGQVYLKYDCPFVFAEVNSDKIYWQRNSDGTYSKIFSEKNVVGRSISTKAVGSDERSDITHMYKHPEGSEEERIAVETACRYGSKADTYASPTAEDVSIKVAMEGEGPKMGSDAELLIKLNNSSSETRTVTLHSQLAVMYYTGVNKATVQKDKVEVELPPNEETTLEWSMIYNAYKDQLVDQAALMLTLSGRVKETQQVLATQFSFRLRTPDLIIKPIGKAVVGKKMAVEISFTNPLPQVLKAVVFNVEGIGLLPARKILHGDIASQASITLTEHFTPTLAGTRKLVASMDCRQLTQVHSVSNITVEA
Described as above. It is filed as biochemical. To be noted: amine acceptor substrate; co-substrate beta-casein (coated); CaCl2; Tris-Cl pH 8.0; 25 °C; 20 min; labelled compound.

Take `NCCCCCNC(=O)CCCC[C@@H]1SC[C@@H]2NC(=O)N[C@@H]21` [bio-Cd]: the “microplate transamidation: incorporation of bio-Cd into coated beta-casein, stre” value at OlTGK1 was “apparent incorporation was observed in the presence of three-different amounts of OlTGK1 and OlTGK2”; at OlTGK2 it was “apparent incorporation was observed in the presence of three-different amounts of OlTGK1 and OlTGK2”.
